This note sets out measurements from US5731155A, “Compositions for inhibition of intracellular transcription factors and methods therefor” (Washington University, priority 1996, dated 1998).

The test system of data set [1] is IFNγ receptor α chain. Description: IFNγ dependent tyrosine phosphorylation of the IFNγ receptor α chain in Colo-205 cells (4G10 western blot). Format: cell-based, human. The following applies: pretreatment of Colo-205 cells with 1 mM. The text has this:
For these experiments, Colo-205, a human adenocarcinoma cell line obtained from the ATCC, was used because it was known to express a high number of IFNγ receptors (10,000 receptors/cell) and has been well characterized with regard to both biologic responsiveness to IFNγ and IFNγ receptor […] phosphorylation (Hershey and Schreiber, 1989; Hershey et al., 1990 both of which are incorporated by reference). Colo-205 cells (5-10×10^7) were resuspended in one ml of PBS-10% FCS and were then incubated at 37° C., either in the presence or absence of rHuIFNγ (10,000 IRU). Purified recombinant human IFNγ was provided by Dr. Susan Kramer of Genentech, Inc. (South San Francisco, Calif.). […] Purified rHuIFNγ was radioiodinated, using Bolton Hunter reagent (ICN Chemicals, Radioisotope Division, Irvine, Calif.) to specific activities of 6.5-17.8 μCi/μg as described in Celada et al. (J Clin Invest 76:2196-2205, 1985 which is incorporated by reference). The reaction was stopped by adding 4 mls of ice-cold PBS. Cells were pelleted, washed once in ice-cold PBS, and then lysed in one ml of lysis buffer (25 mM Tris-HCl (pH 8.0), 1% NP-40, 150 mM NaCl, 1 mM sodium orthovanadate, 10 mM NaF, 1 mM PMSF, 5mM iodoacetamide, […] leupeptin and aprotinin). Solubilized cells were centrifuged at 15,000×g to remove cell nuclei and the supernatants were then incubated with 10 μg of GIR-94 for 30 minutes at 4° C. Protein G sepharose was added to the reaction mixture and the incubation continued for an additional 30 minutes. […]
To determine the amount of receptor precipitated at each time point, aliquots from each immunoprecipitate were subjected to western blot analysis using a monoclonal antibody (GIR-94, a murine antibody IgG2b) that is specific for the human IFNγ receptor extracellular domain. In the absence of added IFNγ, no tyrosine phosphorylated receptor was detected (FIG. 1, lane 1). […]

The subject of data set [2] is Colo-205 cells. Put plainly: IFNγ dependent MHC class II induction on Colo-205 cells. The following applies: pretreatment of Colo-205 cells with 1 mM. Type of data set: cell-based, human. The protocol:
To further characterize the tyrosine phosphorylation of the […] receptor and to partially validate its biologic significance, concomitant dose-response phosphorylation and MHC class II induction analyses were performed. Colo-205 cells (1×10^8 cells/ml) were stimulated for 5 minutes with the indicated concentrations of rHuIFNγ as shown in FIG. 2. Cells were lysed and the IFNγ receptor immunoprecipitated, subjected to SDS-PAGE and electrophoretically transferred to nitrocellulose membranes as described above. Membranes were blotted with the mAb 4G10 (anti-phosphotyrosine) as described. Colo-205 cells (1×10^8 cells/ml) were also stimulated for 5 minutes with the indicated concentrations of rHuIFNγ, washed, and incubated an additional 48 hours in the absence of rHuIFNγ. MHC class II expression was quantitated by flow cytometric analysis.

Data set [3] deals with T1, p91 (Homo sapiens, UniProt P42224).
T1 construct: endogenous in cells; host or cells: Colo-205 (human adenocarcinoma) cell homogenates
T1 sequence (P42224 1-750): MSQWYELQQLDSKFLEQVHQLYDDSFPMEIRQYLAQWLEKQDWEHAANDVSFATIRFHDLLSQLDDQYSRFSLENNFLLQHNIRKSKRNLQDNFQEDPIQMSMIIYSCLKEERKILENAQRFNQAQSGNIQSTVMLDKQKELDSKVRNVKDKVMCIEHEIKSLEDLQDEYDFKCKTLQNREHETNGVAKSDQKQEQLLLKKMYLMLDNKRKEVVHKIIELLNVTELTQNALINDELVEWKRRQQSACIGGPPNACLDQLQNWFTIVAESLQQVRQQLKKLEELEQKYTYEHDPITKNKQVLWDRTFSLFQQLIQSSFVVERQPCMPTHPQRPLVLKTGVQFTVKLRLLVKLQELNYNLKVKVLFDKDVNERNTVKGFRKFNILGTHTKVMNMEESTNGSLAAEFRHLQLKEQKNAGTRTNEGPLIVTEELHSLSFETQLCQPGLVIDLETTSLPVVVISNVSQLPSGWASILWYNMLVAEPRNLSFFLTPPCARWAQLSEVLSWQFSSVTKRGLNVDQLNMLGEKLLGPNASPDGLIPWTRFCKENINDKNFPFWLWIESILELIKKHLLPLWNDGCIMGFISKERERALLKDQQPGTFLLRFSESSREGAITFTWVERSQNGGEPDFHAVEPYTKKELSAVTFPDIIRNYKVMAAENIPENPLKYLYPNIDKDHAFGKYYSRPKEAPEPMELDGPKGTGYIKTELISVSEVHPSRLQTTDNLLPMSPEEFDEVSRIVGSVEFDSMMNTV
Put plainly: Electrophoretic mobility shift assay (EMSA) of IFNγ-induced p91 activation in Colo-205 homogenates. Format: biochemical. Conditions: phosphopeptide 3 μM. The text has this:
For this example, the finding that the latent IFNγ inducible transcription factor, p91, can be activated by IFNγ in a cell free system (Igarashi et al., Mol Cell Biol 13:1634-1640, 1993 which is incorporated by reference) was utilized to determine the biologic significance of the IFNγ induced tyrosine phosphorylation of the Y440 residue in the IFNγ receptor molecule. Colo-205 homogenates were stimulated with 1900 IRU of human IFNγ and p91 activation monitored using an electrophoretic mobility gel shift assay (EMSA) that employed a ^32 P-labeled 18 bp probe derived from the FcγR I gene promoter (Pearse et al., Proc Natl Acad Sci 90:4314-4318, 1993 which is incorporated by reference). The EMSAs were carried out essentially as described (Igarashi et al., supra). […] The reactions were then electrophoresed through a 6% polyacrylamide gel in 0.25×TBE for 3 hours at 150 V. Gels were dried and subsequently analyzed by autoradiography. […] Specificity of interactions were determined by the addition of 350 ng of the unlabeled GRR probe or 560 ng of the unlabeled 41 base pair double stranded oligonucleotide containing the ISRE of ISG15 (5'-GATCCATGCCTCGGGA-[…]-3' SEQ ID NO: 14) (David and Larner, Science 257:813-815, 1992 which is incorporated by reference). […]
On the technique in general: Mobility shift assays separate free from complexed probe on a gel.

Data set [4] is described as follows: Specific antiviral activity of rHuIFNγ. Conditions: purified recombinant human IFNγ.

Where a SMILES comes first, the peptide text is derived from it. [ ]: non-standard residue; d: D form. pY = N[C@@H](Cc1ccc(OP(=O)(O)O)cc1)C(=O)O

As for `CO[C@H]1[C@@H](OC)C[C@H](C)[C@@H](OC)C2=CC(=O)C=C(NC(=O)/C(C)=C/C=C\[C@H](OC)[C@@H](OC(N)=O)/C(C)=C/[C@@H]1C)C2=O` [herbimycin A, reference compound], the “IFNγ dependent tyrosine phosphorylation of the IFNγ receptor α chain” value in data set [1] is “inhibited”. Further, the “IFNγ dependent MHC class II induction” value in data set [2] was “blocked”.

As to `C[C@@H](O)[C@H](N)C(=O)N[C@@H](CO)C(=O)N[C@@H](Cc1ccccc1)C(=O)NCC(=O)N[C@@H](Cc1ccc(OP(=O)(O)O)cc1)C(=O)N[C@@H](CC(=O)O)C(=O)N[C@@H](CCCCN)C(=O)N1CCC[C@H]1C(=O)N[C@@H](Cc1c[nH]cn1)C(=O)O` [SEQ ID NO:3, Thr-Ser-Phe-Gly-Xaa-Asp-Lys-Pro-His] (H-TSFG[pY]DKPH-OH), the “inhibition of formation of activated p91-labeled probe complex” value in data set [3] was found to be 61%.

B1: rHuIFNγ: Purified recombinant human IFNγ provided by Genentech, Inc. (protein, UniProt P01579 24-161, looked up)
Interferon gamma: QDPYVKEAENLKKYFNAGHSDVADNGTLFLGILKNWKEESDRKIMQSQIVSFYFKLFKNFKDDQSIQKSVETIKEDMNVKFFNSNKKKRDDFEKLTNYSVTDLNVQRKAIHELIQVMAELSPAAKTGKRKRSQMLFRG
As for B1, in data set [4], the specific antiviral activities was 3.8×10^7 IRU/mg.
